In brackets after ≈: the same amount, converted by molar mass. Like-named read-outs stand apart in the source and are kept apart here.
How the values were obtained:
[1] = system: Raji cells; test: Cell proliferation assay (MTS); type: cell-based, human; conditions: 24 hrs
Method: (§1) In sterile 96-well plate, each well was seeded with ∼1x10^5 cells. The cells are then grown confluent overnight in 100 μl DMEM with 10% FBS. The medium is replenished with DMEM with 2% FBS and added vehicle control or test substance the next day. For test substance in methanol, stock was added to 25 μl of DMEM with 2% FBS or PBS and placed in the laminar flow hood to let the methanol evaporate (about 1-3 hrs). Once the methanol has evaporated, DMEM with 2% FBS was added to final volume of 100 μl of desired test concentration. […] Cells are grown for additional 24 hrs. The cell viability was determined by using Promega CellTiter 96^© AQueous One Solution Cell Proliferation Assay (3-(4,5-dimethylthiazol-2-yl)-5-(3-carboxymethoxyphenyl)-2-(4-sulfophenyl)-2H-tetrazolium, inner salt; MTS) System following the manufacture protocol.

[2] = system: HEK293 cells; test: Cell proliferation assay (MTS); type: cell-based, human; conditions: for LD50 values, HEK293: MTS cell proliferation assay, 24 hrs, highest concentration 400 µg mL-1; for Minimal Lethal Dose, HEK 293: serial 2-fold dilutions (Table S6)
Method: as §1

[3] = system: HepG2 cells; test: Cell proliferation assay (MTS); type: cell-based, human; conditions: for LD50 values, HepG2: MTS cell proliferation assay, 24 hrs, highest concentration 400 µg mL-1; for Minimal Lethal Dose, HepG2: serial 2-fold dilutions (Table S6)
Method: as §1

[4] = system: Mtb H37Rv ATCC27294; test: Minimum inhibitory concentrations testing against Mtb; type: cell-based, Mycobacterium tuberculosis; conditions: for MIC: Mycobacterium tuberculosis; for Relative Therapeutic Index (RTI), Mtb H37RV a / Relative Therapeutic Index (RTI), Mtb H37RV b: minimal lethal dose / MIC, 800 μg mL-1 used for >400; for Relative Therapeutic Index (RTI), Mtb H37RV a: 7H9/ADC/Tw; for Relative Therapeutic Index (RTI), Mtb H37RV b: GAST/Fe
[5] = system: B. cereus ATCC11778; test: Micro-broth dilution and drop plate antimicrobial susceptibility test; type: cell-based, Bacillus cereus; conditions: for IC50 / MBC / MIC: Bacillus cereus; for Relative Therapeutic Index (RTI), B. cereus NRRL 11778: minimal lethal dose / MIC, 800 μg mL-1 used for >400
Method: (§2) In a sterile 96-well plate, serial dilutions were made with the test substance to final volume of 50 μl. Inoculum was then prepared in Mueller-Hinton broth to 0.5 McFarland and diluted before adding 50 μl to the well to make ∼1x10^5 CFU/ml. The culture plate was incubated at 35 °C for 20-24 hrs. A positive growth control and sterility wells were also prepared along with the culture wells. Absorbance at OD600 was taken using BMG Labtech SPECTROstar Omega spectrophotometer. MIC is determined by the lowest concentration without growth. IC50 is determined from plotting a dose-response curve, see Data Analysis below. To determine the MBC, using a multi-channel pipette, 1 μl of culture broth was taken from the same 96-well microdilution growth plate and carefully inoculated on surface of MH agar plate. The plate is then incubated for additional 20 hrs. at 35 °C. The MBC value is the lowest concentration without observed growth on the agar.

[6] = system: B. subtilis EC1524; test: as above; type: cell-based, Bacillus subtilis; conditions: for IC50 / MBC / MIC: Bacillus subtilis; for Relative Therapeutic Index (RTI), B. subtilis EC1524: minimal lethal dose / MIC, 800 μg mL-1 used for >400
Method: as §2

[7] = system: E. coli ATCC25922; test: as above; type: cell-based; conditions: Escherichia coli
Method: as §2

[8] = system: S. aureus ATCC29219; test: as above; type: cell-based; conditions: Staphylococcus aureus
Method: as §2

[9] = system: P. aeruginosa ATCC27853; test: as above; type: cell-based; conditions: Pseudomonas aeruginosa
Method: as §2

[10] = 168 h, Mtb H37Rv, minimal growth medium, read-out: 1-week MIC in GAST/Fe
[11] = 168 h, Mtb H37Rv, rich 7H9-based growth medium, read-out: 1-week MIC in 7H9/ADC/Tw
[12] = ATCC 11778 / NRRL11778, read-out: Minimal Inhibitory Concentration, B. cereus NRRL 11778
[13] = EC1524, read-out: Minimal Inhibitory Concentration, B. subtilis EC1524
[14] = 168 h, read-out: 1-week MIC in 7H9/ADC/Tw
[15] = 168 h, read-out: 1-week MIC in GAST/Fe
[16] = 168 h, read-out: Minimal Inhibitory Concentration, Mtb H37RV a
[17] = 168 h, read-out: Minimal Inhibitory Concentration, Mtb H37RV b

SMILES	LD50 values, Raji [1] [µg/mL]	LD50 values, HEK293 [2]	LD50 values, HepG2 [3]	MIC [4, 10] [µg/mL]	MIC [4, 11] [µg/mL]	Minimal Lethal Dose, HEK 293 [2] [µg/mL]	Minimal Lethal Dose, HepG2 [3] [µg/mL]	IC50 ([5]; ATCC11778) [µg/mL]	MBC ([5]; ATCC11778) [µg/mL]	MIC ([5]; ATCC11778) [µg/mL]	MIC [5, 12] [µg/mL]	Relative Therapeutic Index (RTI), B. cereus NRRL 11778 [5]	IC50 ([6]; EC1524) [µg/mL]	MBC ([6]; EC1524) [µg/mL]	MIC ([6]; EC1524) [µg/mL]	MIC [6, 13] [µg/mL]	Relative Therapeutic Index (RTI), B. subtilis EC1524 [6]	MIC [4, 14] [µg/mL]	MIC [4, 15] [µg/mL]	MIC [4, 16] [µg/mL]	other results
CC(=O)N[C@H]1C(O)O[C@H](C[C@@H](O)[C@H]2O[C@@H](n3ccc(=O)[nH]c3=O)[C@H](O)[C@@H]2O)[C@H](O)[C@@H]1O (stereo partly drawn) [(2), N-acetyl-tunicamyl-uracil]	303.80 ± 9.83	N/A (N/A = not available. No or low cytotoxicity observed at highest, saturating concentration tested (400 µg mL-1))	N/A (N/A = not available. No or low cytotoxicity observed at highest, saturating concentration tested (400 µg mL-1))	42.5 ± 3.5	> 60	–	–	–	–	–	–	–	–	–	–	–	–	–	–	–	–
N[C@@H]1CON=C1O [D-cycloserine, reference compound]	–	–	–	–	–	–	–	–	–	–	–	–	–	–	–	–	–	–	–	–	MIC ([4]; Mtb H37Rv, used for macromolecular incorporation assay, read-out: MIC concentrations for controls): 29 µM
NNC(=O)c1ccncc1 [Isoniazid, reference compound]	–	–	–	–	–	–	–	–	–	–	–	–	–	–	–	–	–	–	–	–	MIC ([4]; Mtb H37Rv, tested from 0.024 - 50 μM, read-out: MIC of positive control): 0.2 ± 0.1 µM
CCCCCCC(=O)N[C@H]1[C@H](O[C@H]2O[C@H](CO)[C@@H](O)[C@H](O)[C@H]2NC(=O)CCCCCC)O[C@H](C[C@@H](O)[C@H]2O[C@@H](n3ccc(=O)[nH]c3=O)[C@H](O)[C@@H]2O)[C@H](O)[C@@H]1O [TUN-7,7, Di-N-heptanoyl tunicamycin]	431.10 ± 241.81	N/A (N/A = not available. No or low cytotoxicity observed at highest, saturating concentration tested (400 µg mL-1))	N/A (N/A = not available. No or low cytotoxicity observed at highest, saturating concentration tested (400 µg mL-1))	–	–	> 400	> 400	13.3 (≈ 16.9 µM)	> 200	83 ± 29 (≈ 105 µM)	100 (≈ 126 µM)	8	3.12 ± 1.04 (≈ 3.95 µM)	> 50	5.2 ± 1.8 (≈ 6.58 µM)	6.25 (≈ 7.9 µM)	128	5 ± 3.5	1.6 ± 1.8	5	MIC [4, 17]: 1.6 µg/mL; Relative Therapeutic Index (RTI), Mtb H37RV a [4]: 160; Relative Therapeutic Index (RTI), Mtb H37RV b [4]: 500; IC50 [7]: 131 µg/mL (≈ 166 µM); MBC [7]: > 400 µg/mL; MIC [7]: 330 ± 120 µg/mL (≈ 417 µM); IC50 [8]: 80.5 µg/mL (≈ 102 µM); MBC [8]: > 400 µg/mL; MIC [8]: 170 ± 60 µg/mL (≈ 215 µM); IC50 [9]: 62.4 µg/mL (≈ 79 µM); MBC [9]: > 400 µg/mL; MIC [9]: 83 ± 29 µg/mL (≈ 105 µM)
CCCCCCCCCCCC(=O)N[C@H]1[C@H](O[C@H]2O[C@H](CO)[C@@H](O)[C@H](O)[C@H]2NC(=O)CCCCCCCCCCC)O[C@H](C[C@@H](O)[C@H]2O[C@@H](n3ccc(=O)[nH]c3=O)[C@H](O)[C@@H]2O)[C@H](O)[C@@H]1O [TUN-12,12, Di-N-dodecanoyl-tunicamycin]	81.29 ± 30.20	N/A (N/A = not available. No or low cytotoxicity observed at highest, saturating concentration tested (400 µg mL-1))	N/A (N/A = not available. No or low cytotoxicity observed at highest, saturating concentration tested (400 µg mL-1))	–	–	> 400	> 400	1.4 ± 0.47 (≈ 1.5 µM)	> 200	42 ± 14 (≈ 45.1 µM)	50 (≈ 53.7 µM)	16	58.9 (≈ 63.3 µM)	> 200	83 ± 29 (≈ 89.1 µM)	100 (≈ 107 µM)	8	18.7 ± 5.4	6.9 ± 6.2	18.7	MIC [4, 17]: 6.9 µg/mL; Relative Therapeutic Index (RTI), Mtb H37RV a [4]: 43; Relative Therapeutic Index (RTI), Mtb H37RV b [4]: 116; IC50 [7]: 182 µg/mL (≈ 195 µM); MBC [7]: > 400 µg/mL; MIC [7]: 330 ± 120 µg/mL (≈ 354 µM); IC50 [8]: 61.9 µg/mL (≈ 66.5 µM); MBC [8]: > 400 µg/mL; MIC [8]: 170 ± 60 µg/mL (≈ 183 µM); IC50 [9]: 81.7 µg/mL (≈ 87.8 µM); MBC [9]: > 400 µg/mL; MIC [9]: 170 ± 6 µg/mL (≈ 183 µM)
CC(=O)N[C@H]1[C@H](O[C@H]2O[C@H](CO)[C@@H](O)[C@H](O)[C@H]2NC(C)=O)O[C@H](C[C@@H](O)[C@H]2O[C@@H](n3ccc(=O)[nH]c3=O)[C@H](O)[C@@H]2O)[C@H](O)[C@@H]1O [TUN-Ac,Ac, α-D-N-acetylglucosamine-(1”-11')-N-acetyl tunicamyl uracil]	212.30 ± 51.48	N/A (N/A = not available. No or low cytotoxicity observed at highest, saturating concentration tested (400 µg mL-1))	N/A (N/A = not available. No or low cytotoxicity observed at highest, saturating concentration tested (400 µg mL-1))	21.3 ± 1.8	≥ 60	–	–	–	–	–	–	–	–	–	–	–	–	–	–	–	–
CC(C)(C)OC(=O)N[C@H]1[C@H](O[C@H]2O[C@H](CO)[C@@H](O)[C@H](O)[C@H]2NC(=O)OC(C)(C)C)O[C@H](C[C@@H](O)[C@H]2O[C@@H](n3ccc(=O)[nH]c3=O)[C@H](O)[C@@H]2O)[C@H](O)[C@@H]1O [TUN-Boc,Boc, 10',2"-Di-N-Boc-α-D-glucosamine-(1”-11')-tunicamyl uracil]	608.9 ± 394.9	N/A (N/A = not available. No or low cytotoxicity observed at highest, saturating concentration tested (400 µg mL-1))	N/A (N/A = not available. No or low cytotoxicity observed at highest, saturating concentration tested (400 µg mL-1))	> 60	> 60	–	–	–	–	–	–	–	–	–	–	–	–	–	–	–	–
CC(C)=CCC[C@H](C)CC(=O)N[C@H]1[C@H](O[C@H]2O[C@H](CO)[C@@H](O)[C@H](O)[C@H]2NC(=O)C[C@@H](C)CCC=C(C)C)O[C@H](C[C@@H](O)[C@H]2O[C@@H](n3ccc(=O)[nH]c3=O)[C@H](O)[C@@H]2O)[C@H](O)[C@@H]1O [TUN-Cit,Cit, Di-N-citronoyl-tunicamycin]	177.75 ± 75.17	N/A (N/A = not available. No or low cytotoxicity observed at highest, saturating concentration tested (400 µg mL-1))	N/A (N/A = not available. No or low cytotoxicity observed at highest, saturating concentration tested (400 µg mL-1))	–	–	> 400	> 400	6.29 ± 2.1 (≈ 7.22 µM)	> 200	83 ± 29 (≈ 95.3 µM)	100 (≈ 115 µM)	8	0.36 ± 0.12 (≈ 0.413 µM)	> 200	5.2 ± 1.8 (≈ 5.97 µM)	6.25 (≈ 7.18 µM)	128	16.3 ± 8.8	3.4 ± 3.1	16.3	MIC [4, 17]: 3.4 µg/mL; Relative Therapeutic Index (RTI), Mtb H37RV a [4]: 49; Relative Therapeutic Index (RTI), Mtb H37RV b [4]: 235; IC50 [7]: 218 µg/mL (≈ 250 µM); MBC [7]: 400 µg/mL (≈ 459 µM); MIC [7]: > 400 µg/mL; IC50 [8]: 177 µg/mL (≈ 203 µM); MBC [8]: > 200 µg/mL; MIC [8]: > 400 µg/mL; IC50 [9]: 70.3 µg/mL (≈ 80.7 µM); MBC [9]: > 400 µg/mL; MIC [9]: 170 ± 60 µg/mL (≈ 195 µM)
C[C@@H](O)[C@H]1C(=O)N2C(C(=O)O)=C(S[C@@H]3CN[C@H](C(=O)N(C)C)C3)[C@H](C)[C@H]12 [meropenem, reference compound]	–	–	–	–	–	–	–	–	–	–	–	–	–	–	–	–	–	–	–	–	MIC ([4]; Mtb H37Rv, with clavulanate at a fixed concentration of 100 μM, read-out: MIC concentration for control): 2 µM

Reference: PMC6218659, “Structures of DPAGT1 Explain Glycosylation Disease Mechanisms and Advance TB Antibiotic Design” (Cell, 2018)
